From patent US20030134851A1, “Methods and compositions for providing glutamine” (priority 2001, published 2003)
“Also recorded” adds a separate entry of the source.

Key:
[1] = tested on: small intestine bioptic fragments of patients with untreated celiac disease; test: Organ culture of small intestine biopsies of untreated celiac patients (TUNEL, CD25); type: cell-based, human; conditions: 40 ug/ml, 24 hours organ culture
Experimental: The study was performed in a blind fashion. For this study a organ culture model of celiac, which is a widely used and validated to explore gluten toxicity and mucosal damage in celiac disease was utilized. For the purpose of this project small intestine bioptic fragments of patients with untreated celiac disease were used. Biopsies of untreated celiac patients are ideal to monitor aspects of mucosal damage including induction of epithelial apoptosis and increase of mucosal inflammation.
Twelve adult patients, who were diagnosed as potential untreated celiac patients, were enrolled. Their disease was confirmed by clinical signs, the presence of high titres of anti-tissue transglutaminase and histological analysis of small intestine biopsies.
Organ cultures were performed using standard methods described in Maiuri, L. et al, Gastroenterology 110, 1368-1378. (1996). Briefly a small biopsy fragment (around 1 mm×1 mm) was put on stainless steel mesh and cultured in medium supplemented with the different compounds for a period of 24 hours. The standard positive and negative controls used in studies involving celiac patients and in vitro challenge of biopsies were utilized. The positive control was 1 mg/ml of gliadin peptic-tryptic digest. The negative control was the medium alone. All the compounds to be tested were used at the final concentration of 40 ug/ml. […]
Antigen detection on frozen tissue sections was performed by immunohistochemistry as described in Maiuri, L. et al. Blockage of T-cell costimulation inhibits T-cell action in Celiac disease. […] At least 5 slides for each sample were blindly evaluated. […]
The total number of TUNEL+ enterocytes was referred as percentage of enterocytes. The total number of CD25+ cells in the lamina propria was determined within a standard reference area of 1 mm^2. The counts were performed at a microscope with a calibrated ocular graticule aligned parallel to the muscolaris mucosae and independently analysed by two observers; the results were compared afterwards.

[2] = orally administered radiolabeled, rats; cited from earlier work

In the case of `CC(=O)N[C@@H](CCC(N)=O)C(=O)O` [N-acetyl-L-glutamine], the “Induction of epithelial apoptosis (TUNEL) and sub-epithelial inflammation (CD25)” value [1] is reported as “did not induce any effect”, the “Trophic effect on the biopsies of untreated celiac patients” value [1] is reported as “clear trophic effect; also recorded: appears to improve the overall condition of the mucosa even compared to medium alone” and the “Trophic effect on the biopsies of untreated celiac patients” value ([1]; listed as N-acetyl-glutamine) is reported as “clear trophic effect”. The “Absorption across the intestinal mucosa” value [2] was “absorbed intact”.
